The target of one experiment is T1, WT human TP receptor (Homo sapiens, UniProt P21731).
T1 construct: expressed in transfected cells; host or cells: HEK293
T1 sequence (P21731 1-343): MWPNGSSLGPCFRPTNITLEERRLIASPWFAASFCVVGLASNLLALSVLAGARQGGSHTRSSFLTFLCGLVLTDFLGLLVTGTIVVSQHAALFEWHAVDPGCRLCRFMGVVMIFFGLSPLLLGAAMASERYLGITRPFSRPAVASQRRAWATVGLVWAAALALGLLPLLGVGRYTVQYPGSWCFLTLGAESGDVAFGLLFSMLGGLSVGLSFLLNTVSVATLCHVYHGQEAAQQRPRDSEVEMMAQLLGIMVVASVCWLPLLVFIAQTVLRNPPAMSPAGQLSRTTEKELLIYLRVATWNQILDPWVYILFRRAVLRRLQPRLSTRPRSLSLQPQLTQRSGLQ
As to the kind of experiment: [3H]SQ29,548 radioligand binding (mixed-type and heterologous competition), WT receptor. To be noted: HEK293 cells, value ±%CV. The procedure: (§1) Receptor expression and functional activity were monitored 48 hours after transfection. […] Heterologous competition studies involved concentrations of the indicated unlabeled ligands extending from 0.1 nM to 30 µM. After 30 min incubation at 25 °C, the reaction was stopped by aspiration of the medium, cells were washed with ice-cold PBS containing 0.2% (w/v) BSA and lysed in 0.5 N NaOH. Radioactivity was measured by liquid scintillation counting. Binding data were analyzed as described in Data and Statistical Analysis. Quantification of the total labeled inositol phosphates (IP) accumulation was performed using a conventional gravity flow column chromatography, as described previously, [19]. Briefly, the day before the assay, cells were labeled with 0,5 µCi of [myo-2-^3H]inositol (17 Ci/mmol) for 18–20 hours in serum-free, inositol-free DMEM containing 20 mM HEPES buffer, pH 7.4, and 0.5% (w/v) Albumax I. The day of the assay, media was replaced with serum-free, inositol-free DMEM containing 25 mM LiCl and cells stimulated for 30 min with the indicated agonists. After removal of the medium, cells were lysed with 10 mM formic acid and lysates were applied onto an anion exchange AG 1X-8 column, formate form, 200–400 mesh. The total IP fraction was then eluted with 2 M ammonium formate/formic acid buffer at pH 5 and radioactivity determined by liquid scintillation counting. Rescue experiments were performed essentially as above, except for a 18 hours incubation step with 1 µΜof SQ29,584 followed by its removal by washing three times with ice-cold PBS containing 1 mM MgCl2 and 0.1 mM CaCl2 before starting the experiment.
(§2) All average results are presented as mean±S.E. When indicated, ANOVA followed by post-hoc test for multiple comparisons was performed. Data from radioligand binding were evaluated by a nonlinear, least-squares curve-fitting procedure using GraphPad Prism version 4, implemented with the n-ligand m-binding site model, as described in the LIGAND computer program. Concentration-response curves were evaluated using Prism 4, which use the four parameters logistic model as described in the ALLFIT program. Parameter errors are all expressed in percentage coefficient of variation (%CV) and calculated by simultaneous analysis of at least two different independent experiments performed in duplicate or triplicate. Parameter comparison has been performed on the base of the F test for extra sum of square principle. All curves shown are computer generated.
(§3) Thus, transfection conditions were adjusted to secure equivalent levels of receptor expression for WT and mutants as previously described, [17], [19]. […] All the experiments were conducted within this range of receptor expression, if not specified differently.

The target of experiment [1] is T2, E129V mutant human TP receptor (Homo sapiens, UniProt P21731, E129V).
T2 construct: expressed in transfected cells; host or cells: HEK293
T2 sequence (P21731 1-343 E129V): T1 sequence (P21731 1-343) with E129V
As to the kind of experiment: [3H]SQ29,548 radioligand binding (mixed-type and heterologous competition), E129V mutant. As to conditions: HEK293 cells, E129V, value ±%CV. The protocol:
as §1, §2, §3

Experiment [2] concerns the target T3, E240V mutant human TP receptor (Homo sapiens, UniProt P21731, E240V).
T3 construct: expressed in transfected cells; host or cells: HEK293
T3 sequence (P21731 1-343 E240V): T1 sequence (P21731 1-343) with E240V
Briefly: [3H]SQ29,548 radioligand binding (mixed-type), E240V mutant. To be noted: HEK293 cells, value ±%CV. The procedure: as §1, with “Rescue experiments were performed essentially as above, except for a 18 hours incubation step with 1 µΜof SQ29,584 followed by its removal by washing three times with ice-cold PBS containing 1 mM MgCl2 and 0.1 mM CaCl2 before starting the experiment.” left out
as §2, with “Parameter comparison has been performed on the base of the F test for extra sum of square principle. All curves shown are computer generated.” left out

Experiment [3] deals with T4, E129/240V double mutant human TP receptor (Homo sapiens, UniProt P21731, E129V/E240V).
T4 construct: expressed in transfected cells; host or cells: HEK293
T4 sequence (P21731 1-343 E129V/E240V): T1 sequence (P21731 1-343) with E129V, E240V
As to the kind of experiment: [3H]SQ29,548 radioligand binding (mixed-type), E129/240V double mutant. To be noted: HEK293 cells, no Gαq, before SQ29,548 rescue, value ±%CV. The procedure: Receptor expression and functional activity were monitored 48 hours after transfection. […] Heterologous competition studies involved concentrations of the indicated unlabeled ligands extending from 0.1 nM to 30 µM. After 30 min incubation at 25 °C, the reaction was stopped by aspiration of the medium, cells were washed with ice-cold PBS containing 0.2% (w/v) BSA and lysed in 0.5 N NaOH. Radioactivity was measured by liquid scintillation counting. Binding data were analyzed as described in Data and Statistical Analysis. Quantification of the total labeled inositol phosphates (IP) accumulation was performed using a conventional gravity flow column chromatography, as described previously, [19]. […] The total IP fraction was then eluted with 2 M ammonium formate/formic acid buffer at pH 5 and radioactivity determined by liquid scintillation counting. […]
All average results are presented as mean±S.E. When indicated, ANOVA followed by post-hoc test for multiple comparisons was performed. Data from radioligand binding were evaluated by a nonlinear, least-squares curve-fitting procedure using GraphPad Prism version 4, implemented with the n-ligand m-binding site model, as described in the LIGAND computer program. Concentration-response curves were evaluated using Prism 4, which use the four parameters logistic model as described in the ALLFIT program. […]

Numbering of substitutions follows the chain as printed. Marks after values point to notes of the source that are not given here.

With `O=C(O)CCC/C=C\C[C@@H]1[C@H](CNNC(=O)Nc2ccccc2)[C@@H]2CC[C@H]1O2` [[^3H]SQ29,548, [5,6-^3H]SQ29,548], the Bmax at WT human TP receptor (Gαq 3x) is reported as 0.90±46 pmol/mg prot; on WT human TP receptor (Gαq 5x), 0.95±39 pmol/mg prot; at WT human TP receptor (no Gαq cotransfection), 0.44±32 pmol/mg prot; in experiment [1] (Gαq 3x), 0.38±21 pmol/mg prot; in experiment [1] (Gαq 5x), 0.39±30 pmol/mg prot; in experiment [1] (no Gαq cotransfection), 0.53±16 pmol/mg prot. Moreover, the Bmax in experiment [2] (Gαq 3x) was 0.65±52 pmol/mg prot; in experiment [2] (Gαq 5x), 0.49±34 pmol/mg prot; in experiment [2] (no Gαq cotransfection), 0.97±31 pmol/mg prot; in experiment [3], 0.04±68 ^b pmol/mg prot.

The record behind these values is publication PMC3610872, “Full and Partial Agonists of Thromboxane Prostanoid Receptor Unveil Fine Tuning of Receptor Superactive Conformation and G Protein Activation” (PLoS ONE, 2013).
